From the supplement of paper PMC13380429

Legend:
HepG2 [1] = assay: relative viability EC50 (midpoint between 100% and the lowest measured viability); higher = less toxic; conditions: 72 h
Calu-3 [2] = assay: as above; conditions: 72 h
U2OS [3] = assay: as above; conditions: 72 h
Caco-2 [4] = assay: as above; conditions: 72 h
Vero E6 [5] = assay: as above; conditions: 72 h
HepG2 [6] = assay: cell viability relative to DMSO; higher = less toxic; conditions: 72 h
Calu-3 [7] = assay: as above; conditions: 72 h
U2OS [8] = assay: as above; conditions: 72 h
Caco-2 [9] = assay: as above; conditions: 72 h
Vero E6 [10] = assay: as above; conditions: 72 h
HepG2 [11] = assay: drug sensitivity score (DSS) for viability; higher = more toxic; extreme values may be limits of the assay; conditions: 72 h
Calu-3 [12] = assay: as above; conditions: 72 h
U2OS [13] = assay: as above; conditions: 72 h
Caco-2 [14] = assay: as above; conditions: 72 h
Vero E6 [15] = assay: as above; conditions: 72 h
A549-ACE2 = assay: drug-induced phospholipidosis relative to tamoxifen; higher = more phospholipidosis
[16] = test system: A549-ACE2 infected with SARS-CoV-2; assay: SARS-CoV-2 infection rate relative to DMSO; higher = more infection; conditions: 24 h
[17] = test system: A549-ACE2 infected with SARS-CoV-2; assay: cell count relative to DMSO; higher = less toxic; conditions: 24 h
[18] = test system: A549-ACE2 infected with SARS-CoV-2; assay: morphology score (similarity to uninfected cells); higher = more like uninfected cells; conditions: 24 h

NC(=O)N1C(=O)/C(=C(\O)c2cccs2)c2cc(Cl)ccc21 [tenidap]
Conditions | drug sensitivity score | relative viability EC50 [µM]
Caco-2 [4] | – | > 10
Caco-2 [14] | 0 | –
Calu-3 [2] | – | > 10
Calu-3 [12] | 0 | –
HepG2 [1] | – | > 10
HepG2 [11] | 0 | –
U2OS [3] | – | > 10
U2OS [13] | 0 | –
Vero E6 [5] | – | > 10
Vero E6 [15] | 0 | –

cell viability [%]
Conditions | Caco-2 [9] | Calu-3 [7] | HepG2 [6] | U2OS [8] | Vero E6 [10]
1 nM | 98.3 | 109 | 98.4 | 99.6 | 102
10 nM | 94.6 | 97 | 110 | 98.3 | 103
100 nM | 97.1 | 85.4 | 98.8 | 93.3 | 94.6
1000 nM | 94 | 108 | 106 | 102 | 93.1
10000 nM | 91.6 | 99.9 | 99.9 | 99 | 99

O=C(O)C1CSCN1 (stereo not drawn) [timonacic]
Conditions | drug sensitivity score | relative viability EC50 [µM]
Caco-2 [4] | – | > 10
Caco-2 [14] | 0 | –
Calu-3 [2] | – | > 10
Calu-3 [12] | 0 | –
HepG2 [1] | – | > 10
HepG2 [11] | 0 | –
U2OS [3] | – | > 10
U2OS [13] | 0 | –
Vero E6 [5] | – | > 10
Vero E6 [15] | 0 | –

cell viability [%]
Conditions | Caco-2 [9] | Calu-3 [7] | HepG2 [6] | U2OS [8] | Vero E6 [10]
1 nM | 101 | 115 | 94.4 | 103 | 97
10 nM | 102 | 94.9 | 98.7 | 98.2 | 99.6
100 nM | 96.4 | 94.6 | 88.1 | 99.5 | 97.6
1000 nM | 88.3 | 109 | 98.4 | 98.8 | 98.9
10000 nM | 102 | 104 | 97.9 | 102 | 94.1

CCOC(=O)NNc1nncc2ccccc12 [todralazine]
Conditions | drug sensitivity score | relative viability EC50 [µM]
Caco-2 [4] | – | > 10
Caco-2 [14] | 0 | –
Calu-3 [2] | – | > 10
Calu-3 [12] | 0 | –
HepG2 [1] | – | > 10
HepG2 [11] | 0 | –
U2OS [3] | – | > 10
U2OS [13] | 0 | –
Vero E6 [5] | – | > 10
Vero E6 [15] | 0 | –

cell viability [%]
Conditions | Caco-2 [9] | Calu-3 [7] | HepG2 [6] | U2OS [8] | Vero E6 [10]
1 nM | 90.4 | 84.4 | 79.3 | 98.6 | 101
10 nM | 111 | 109 | 97.3 | 100 | 88.3
100 nM | 84.2 | 101 | 125 | 97.1 | 97.3
1000 nM | 94.4 | 110 | 112 | 102 | 91.5
10000 nM | 117 | 103 | 97.3 | 105 | 99.4

CC[C@@]1(O)C(=O)OCc2c1cc1n(c2=O)Cc2cc3c(CN(C)C)c(O)ccc3nc2-1 [topotecan]
Conditions | drug sensitivity score | relative viability EC50 [µM]
Caco-2 [4] | – | 0.748
Caco-2 [14] | 10.4 | –
Calu-3 [2] | – | 0.38
Calu-3 [12] | 12.6 | –
HepG2 [1] | – | 0.0757
HepG2 [11] | 23.6 | –
U2OS [3] | – | 1.16
U2OS [13] | 10.2 | –
Vero E6 [5] | – | 0.756
Vero E6 [15] | 7.5 | –

cell viability [%]
Conditions | Caco-2 [9] | Calu-3 [7] | HepG2 [6] | U2OS [8] | Vero E6 [10]
1 nM | 97.7 | 111 | 110 | 101 | 102
10 nM | 92.8 | 102 | 70.3 | 107 | 97.3
100 nM | 83.3 | 77.3 | 48.6 | 97.9 | 95.1
1000 nM | 58.6 | 47.2 | 18.8 | 60.6 | 65.1
10000 nM | 16.2 | 20.1 | 1.4 | 5.9 | 39.8

COc1cc2ncnc(Nc3cccc(Cl)c3)c2cc1OC [tyrphostin-AG-1478]
Conditions | drug sensitivity score | relative viability EC50 [µM]
Caco-2 [14] | 3.1 | –
Calu-3 [2] | – | 0.422
Calu-3 [12] | 11.1 | –
HepG2 [11] | 1.5 | –
U2OS [3] | – | > 10
U2OS [13] | 0.1 | –
Vero E6 [5] | – | 0.335
Vero E6 [15] | 8.2 | –

Conditions | SARS-CoV-2 infection rate, [16] [%] | cell count, [17] [%] | cell viability, Caco-2 [9] [%] | cell viability, Calu-3 [7] [%] | cell viability, HepG2 [6] [%] | cell viability, U2OS [8] [%] | cell viability, Vero E6 [10] [%] | morphology score, [18]
1 nM | – | – | 102 | 107 | 99.7 | 103 | 98.6 | –
10 nM | – | – | 88.6 | 103 | 85.3 | 96.1 | 100 | –
100 nM | – | – | 97.4 | 93.6 | 101 | 96.2 | 84.9 | –
0.3 µM | 101 | 97 | – | – | – | – | – | -0.07
1000 nM | – | – | 80.5 | 45.1 | 100 | 92.7 | 64.3 | –
3 µM | 91 | 102 | – | – | – | – | – | 0.32
10000 nM | – | – | 72.4 | 31.3 | 67.3 | 87.7 | 48.2 | –
10 µM | 57 | 106 | – | – | – | – | – | 0.52
30 µM | 19 | 69 | – | – | – | – | – | 0.35

drug-induced phospholipidosis [%], A549-ACE2
Conditions | 0.3 µM | 0.833333 µM | 3.33333 µM | 6.66667 µM | 10 µM | 30 µM
24 h | 3.78 | 0.06 | -0.97 | 3.23 | 3.9 | 3.18
48 h | 3.39 | -0.45 | -0.89 | -0.86 | 1.84 | -2.59
72 h | 0.893 | -2.52 | -3.56 | -0.746 | 0.696 | -0.954

CC(C)(Sc1ccncc1-c1ccc(C#N)c2ccccc12)C(=O)O [verinurad]
Conditions | drug sensitivity score | relative viability EC50 [µM]
Caco-2 [4] | – | > 10
Caco-2 [14] | 0 | –
Calu-3 [2] | – | > 10
Calu-3 [12] | 0 | –
HepG2 [1] | – | > 10
HepG2 [11] | 0 | –
U2OS [3] | – | > 10
U2OS [13] | 0 | –
Vero E6 [5] | – | > 10
Vero E6 [15] | 0 | –

cell viability [%]
Conditions | Caco-2 [9] | Calu-3 [7] | HepG2 [6] | U2OS [8] | Vero E6 [10]
1 nM | 97.6 | 106 | 103 | 103 | 95.3
10 nM | 93.2 | 93.7 | 99.8 | 99.5 | 101
100 nM | 101 | 90.9 | 93.3 | 96.8 | 91.9
1000 nM | 95 | 113 | 105 | 99.8 | 99.4
10000 nM | 101 | 96.8 | 122 | 103 | 106

O=c1ncccn1[C@@H]1O[C@H](CO)[C@@H](O)[C@H]1O [zebularine]
Conditions | drug sensitivity score | relative viability EC50 [µM]
Caco-2 [4] | – | > 10
Caco-2 [14] | 0 | –
Calu-3 [2] | – | > 10
Calu-3 [12] | 0.3 | –
HepG2 [1] | – | > 10
HepG2 [11] | 0 | –
U2OS [3] | – | > 10
U2OS [13] | 0 | –
Vero E6 [5] | – | > 10
Vero E6 [15] | 0 | –

cell viability [%]
Conditions | Caco-2 [9] | Calu-3 [7] | HepG2 [6] | U2OS [8] | Vero E6 [10]
1 nM | 103 | 94.4 | 113 | 97.8 | 99.6
10 nM | 102 | 102 | 97.5 | 99.2 | 99.1
100 nM | 104 | 85.9 | 111 | 96.8 | 102
1000 nM | 97.9 | 96.7 | 101 | 101 | 97.9
10000 nM | 101 | 84.4 | 103 | 92.6 | 99.1
